# Measurements taken from patent US20220098265A1 (MEDIMMUNE LIMITED, priority 2012, published 2022).
# Numbered stars: 1 amine (or outer) side, 2 acyl side, 3 side chain; on linkers, the order of the positions; unused ones are H or OH. Side chains are listed from the residue outwards. Peptide text beside a SMILES is read from it. * marks the point of attachment. γGlu = O=C(O)[C@H](CCC(=O)[*:2])N[*:1]; Palmitoyl = CCCCCCCCCCCCCCCC(=O)*
# Key:
# [1] = Stability testing of peptides in rat plasma; format: in vitro ADME
# Experimental: Stability testing of peptides in plasma. The stability in plasma of the peptides […], […], […] and […] was determined as follows. […] The frozen blank plasma from human, rat and mouse had been thawed and heated to a temperature of 37° C. before addition of the stock solution. The spiked plasma samples were gently mixed and allowed to equilibrate for about 5 minutes before start of experiment. The plasma samples were incubated for 48 hours in a Galaxy® CO2 incubator at 37° C. […] The samples were stored at -70° C. until analysis. Plasma samples were assayed as follows. The 30 μL plasma samples were protein precipitated with […] of cold ethanol in a 96-well low bind plate (Eppendorf Protein LoBind). After mixing and centrifugation 100 μl the supernatant was transferred to a new plate and 1 μl was injected onto an analytical column. The analysis was performed using a μLC-system ([…]) coupled to a medium high resolution mass spectrometer (Perkin Elmer PenTOF) with positive electrospray ionisation. […] Flow: 0.1 ml/min using a slow reversed phase gradient. […] Products with +1 mass may arise from deamidation at amide groups of glutamine or at the C-terminus. Cleavage products arise from the action of the protease DPP IV in plasma. […] Peaks were integrated and % remaining peptide was calculated: […] […]
# DIO mice = assay: Diet induced obesity (DIO) mouse model, study A; format: in vivo; settings: for HOMA / Hepatic TG / Plasma NEFA / Plasma TG: day 14; for FGF21 / BeHy: day 14 (dose from row order); for Glucose / Insulin: day 14, 4-hour fasting; for BeHy: beta-hydroxybutyrate
# Text: Female C57/B16JHsdOla (obtained from Harlan Laboratories, UK) were started on a high fat diet of D12492 (Research Diets, NJ, USA) and a chocolate confection, delicato ball (Delicata Bakverk, Sweden) at 9-11 weeks of age, and were maintained on the diet for 16 weeks prior to arrival to the animal facility, during a three week acclimatizion period and during drug treatment, caloric content of the two components of the diet is shown in Table 11. The mice were divided into 9 groups (n=5-6), and treatment was started at 29 weeks of age.
# The body weight of the animals was monitored daily throughout the dosing period. At day 14, blood samples for the measurement of plasma glucose and insulin from conscious mice were obtained after a 4-hour fasting period. Mice were then anaesthetized using isofluorane and terminal blood was collected from the capillary bed behind the eye. The following parameters were measured: blood chemistry measurements of triglycerides, total cholesterol, non-esterified fatty acids (NEFA), beta-hydroxybutyrate and fibroblast growth factor 21 (FGF21) (Tables 14 and 15 below).
# [2] = Stability testing of peptides in mouse plasma; format: in vitro ADME
# Experimental: (§1) Stability testing of peptides in plasma. The stability in plasma of the peptides […], […], […] and […] was determined as follows. […] The frozen blank plasma from human, rat and mouse had been thawed and heated to a temperature of 37° C. before addition of the stock solution. The spiked plasma samples were gently mixed and allowed to equilibrate for about 5 minutes before start of experiment. The plasma samples were incubated for 48 hours in a Galaxy® CO2 incubator at 37° C. […] The samples were stored at -70° C. until analysis. Plasma samples were assayed as follows. The 30 μL plasma samples were protein precipitated with […] of cold ethanol in a 96-well low bind plate (Eppendorf Protein LoBind). After mixing and centrifugation 100 μl the supernatant was transferred to a new plate and 1 μl was injected onto an analytical column. The analysis was performed using a μLC-system ([…]) coupled to a medium high resolution mass spectrometer (Perkin Elmer PenTOF) with positive electrospray ionisation. […] Flow: 0.1 ml/min using a slow reversed phase gradient. […] Products with +1 mass may arise from deamidation at amide groups of glutamine or at the C-terminus. Cleavage products arise from the action of the protease DPP IV in plasma. Both the degradation of the peptides and formation of peptide products were reported in percentage of the initial peptide concentration. Peaks were integrated and % remaining peptide was calculated: […] Levels of deamidation and DPP IV cleavage were low for […] and […].
# physchem = settings: pH 7.2
# Experimental: Peptide solubility was assessed in three different isotonic formulations: • 1. […] Final formulation pH=7.2 • 2. Back up formulation 1 (BF1)=0.05M Tris, 50 mM Arginine/Proline. Final formulation pH=8.0 • 3. […] Final formulation pH=7.0
# [3] = Peptide solubility in buffers (A280); settings: target 1 mg/ml
# human serum albumin = human serum albumin (Homo sapiens, UniProt P02768); assay: Fraction of free peptide at plasma concentration of albumin, calculated from variation in cAMP generation with HSA concentration; format: in vitro ADME; parameters: purchased Sigma Aldrich; settings: calculated from variation in cAMP generation with HSA concentration
# human serum albumin, sequence (P02768 25-609): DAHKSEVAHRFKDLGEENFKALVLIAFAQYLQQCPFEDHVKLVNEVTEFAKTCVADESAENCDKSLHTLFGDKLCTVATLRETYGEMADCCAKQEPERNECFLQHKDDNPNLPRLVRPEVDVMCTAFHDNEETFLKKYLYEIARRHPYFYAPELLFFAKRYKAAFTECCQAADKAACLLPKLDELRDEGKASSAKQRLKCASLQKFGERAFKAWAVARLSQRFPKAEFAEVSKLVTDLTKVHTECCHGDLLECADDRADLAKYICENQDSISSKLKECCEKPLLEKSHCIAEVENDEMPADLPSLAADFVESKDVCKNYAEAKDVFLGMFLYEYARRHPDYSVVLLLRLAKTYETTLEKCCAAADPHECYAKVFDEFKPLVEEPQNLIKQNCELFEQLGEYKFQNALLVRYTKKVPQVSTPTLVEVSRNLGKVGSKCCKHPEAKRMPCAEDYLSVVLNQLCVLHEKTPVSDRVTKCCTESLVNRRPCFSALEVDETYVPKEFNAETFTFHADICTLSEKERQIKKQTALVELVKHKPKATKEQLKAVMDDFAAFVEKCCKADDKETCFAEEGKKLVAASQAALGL
# Mouse GlucR = Mouse GlucR (Mus musculus, UniProt Q61606); assay: cAMP assay 2 in […] mouse serum albumin, mouse GlucR; settings: assay 2, […] Mouse Serum Albumin; relative potencies vs natural ligands
# Mouse GlucR, sequence (Q61606 27-485): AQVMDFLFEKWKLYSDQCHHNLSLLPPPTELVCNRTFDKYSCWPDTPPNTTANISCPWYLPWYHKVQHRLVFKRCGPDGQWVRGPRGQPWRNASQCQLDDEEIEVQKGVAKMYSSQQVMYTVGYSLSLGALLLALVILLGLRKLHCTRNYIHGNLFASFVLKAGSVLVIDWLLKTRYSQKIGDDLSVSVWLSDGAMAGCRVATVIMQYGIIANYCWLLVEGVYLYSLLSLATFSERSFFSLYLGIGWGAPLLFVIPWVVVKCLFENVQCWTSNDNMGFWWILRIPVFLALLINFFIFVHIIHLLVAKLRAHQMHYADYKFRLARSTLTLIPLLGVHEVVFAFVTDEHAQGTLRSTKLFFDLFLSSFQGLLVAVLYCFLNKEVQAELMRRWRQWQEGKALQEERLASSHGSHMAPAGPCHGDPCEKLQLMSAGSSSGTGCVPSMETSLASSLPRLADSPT
# Human GlucR = Human GlucR (Homo sapiens, UniProt P47871); assay: cAMP assay 2 in 4.4% human serum albumin, human GlucR; settings: assay 2, 4.4% Human Serum Albumin; relative potency GlucR (vs glucagon)/relative potency GLP1R (vs GLP1)
# Human GlucR, sequence (P47871 26-477): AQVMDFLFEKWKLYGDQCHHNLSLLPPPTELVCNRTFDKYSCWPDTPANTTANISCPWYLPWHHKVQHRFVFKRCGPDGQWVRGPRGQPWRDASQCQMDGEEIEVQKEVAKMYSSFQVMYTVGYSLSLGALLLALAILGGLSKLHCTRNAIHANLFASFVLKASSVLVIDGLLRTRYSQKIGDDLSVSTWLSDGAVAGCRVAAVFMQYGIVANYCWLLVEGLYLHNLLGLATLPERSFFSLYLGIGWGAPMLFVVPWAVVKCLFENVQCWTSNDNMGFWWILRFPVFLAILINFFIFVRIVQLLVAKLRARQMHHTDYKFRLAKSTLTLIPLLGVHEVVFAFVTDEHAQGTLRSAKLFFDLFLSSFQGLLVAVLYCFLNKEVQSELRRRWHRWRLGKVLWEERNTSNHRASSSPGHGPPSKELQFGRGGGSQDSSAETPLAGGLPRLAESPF
# [4] = Stability testing of peptides in human plasma; format: in vitro ADME
# Experimental: as §1
# Rat GlucR = Rat GlucR (Rattus norvegicus, UniProt P30082); assay: cAMP assay 2 in […] rat serum albumin, rat GlucR; settings: assay 2, […] Rat Serum Albumin; relative potencies vs natural ligands
# Rat GlucR, sequence (P30082 27-485): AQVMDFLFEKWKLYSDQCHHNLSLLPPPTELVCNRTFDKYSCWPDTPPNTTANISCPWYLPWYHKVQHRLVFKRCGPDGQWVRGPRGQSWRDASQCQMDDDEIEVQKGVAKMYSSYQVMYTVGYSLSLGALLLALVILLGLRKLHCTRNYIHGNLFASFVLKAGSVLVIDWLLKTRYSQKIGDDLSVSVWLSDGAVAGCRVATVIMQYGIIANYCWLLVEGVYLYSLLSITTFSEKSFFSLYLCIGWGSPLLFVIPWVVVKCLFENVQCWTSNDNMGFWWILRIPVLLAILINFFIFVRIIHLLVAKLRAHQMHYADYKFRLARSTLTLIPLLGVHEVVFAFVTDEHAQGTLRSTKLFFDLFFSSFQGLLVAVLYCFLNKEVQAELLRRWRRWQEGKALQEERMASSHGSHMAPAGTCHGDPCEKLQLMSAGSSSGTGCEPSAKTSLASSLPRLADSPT
smiles,measurement,setting,value
CCCCCCCCCCCCCCCC(=O)N[C@@H](CCC(=O)NCCCC[C@H](NC(=O)[C@H](CCCCN)NC(=O)[C@H](CO)NC(=O)[C@H](Cc1ccc(O)cc1)NC(=O)[C@H](CC(=O)O)NC(=O)[C@H](CO)NC(=O)[C@@H](NC(=O)[C@H](Cc1ccccc1)NC(=O)[C@@H](NC(=O)CNC(=O)[C@H](CCC(N)=O)NC(=O)[C@H](CO)NC(=O)[C@@H](N)Cc1c[nH]cn1)[C@@H](C)O)[C@@H](C)O)C(=O)N[C@@H](CC(C)C)C(=O)N[C@@H](CC(=O)O)C(=O)N[C@@H](CO)C(=O)N[C@@H](CCC(=O)O)C(=O)N[C@@H](CCCNC(=N)N)C(=O)N[C@@H](C)C(=O)N[C@@H](CCCNC(=N)N)C(=O)N[C@@H](CC(=O)O)C(=O)N[C@@H](Cc1ccccc1)C(=O)N[C@H](C(=O)N[C@@H](C)C(=O)N[C@@H](Cc1c[nH]c2ccccc12)C(=O)N[C@@H](CC(C)C)C(=O)N[C@H](C(=O)N[C@@H](C)C(=O)NCC(=O)NCC(N)=O)C(C)C)C(C)C)C(=O)O [Peptide G730] (H-HSQGTFTSDYSKK([γGlu-Palmitoyl])LDSERARDFVAWLVAGG-NH2; N-terminus assumed),% +1 prod,[1],58%
same,% DPP cleaved product/+1 DPP cleaved product,[1],2%
same,BW day 14 (% change of vehicle mean),DIO mice; 10 nmol/kg s.c. twice daily for 14 days,−7.5%
same,HOMA,DIO mice; 10 nmol/kg s.c. twice daily,3.3
same,Hepatic TG,DIO mice; 10 nmol/kg s.c. twice daily,9.0 g TG/100g Tissue
same,Plasma NEFA,DIO mice; 10 nmol/kg s.c. twice daily,0.28 mM
same,Plasma TG,DIO mice; 10 nmol/kg s.c. twice daily,0.21 mM
same,FGF21,DIO mice; 10 nmol/kg s.c. twice daily,1963 pg/mL
same,Glucose,DIO mice; 10 nmol/kg s.c. twice daily,7.2 mM
same,Insulin,DIO mice; 10 nmol/kg s.c. twice daily,0.4 nM
same,BW day 14 (% change of vehicle mean),DIO mice; 20 nmol/kg s.c. twice daily for 14 days,−15.6%
same,HOMA,DIO mice; 20 nmol/kg s.c. twice daily,1.7
same,Hepatic TG,DIO mice; 20 nmol/kg s.c. twice daily,17.7 g TG/100g Tissue
same,Plasma NEFA,DIO mice; 20 nmol/kg s.c. twice daily,0.26 mM
same,Plasma TG,DIO mice; 20 nmol/kg s.c. twice daily,0.2 mM
same,FGF21,DIO mice; 20 nmol/kg s.c. twice daily,2236 pg/mL
same,Glucose,DIO mice; 20 nmol/kg s.c. twice daily,6.7 mM
same,Insulin,DIO mice; 20 nmol/kg s.c. twice daily,0.2 nM
same,insulin sensitivity index HOMA,"DIO mice; 20 nmol/kg, result in words",significantly improved
same,change in weight at day 14 as compared to the vehicle-treated animals,DIO mice; 50 nmol/kg,about 24%
same,BW day 14 (% change of vehicle mean),DIO mice; 50 nmol/kg s.c. twice daily for 14 days,−24.0%
same,HOMA,DIO mice; 50 nmol/kg s.c. twice daily,2.1
same,Hepatic TG,DIO mice; 50 nmol/kg s.c. twice daily,28.1 g TG/100g Tissue
same,Plasma NEFA,DIO mice; 50 nmol/kg s.c. twice daily,0.32 mM
same,Plasma TG,DIO mice; 50 nmol/kg s.c. twice daily,0.23 mM
same,FGF21,DIO mice; 50 nmol/kg s.c. twice daily,5294 pg/mL
same,Glucose,DIO mice; 50 nmol/kg s.c. twice daily,5.9 mM
same,Insulin,DIO mice; 50 nmol/kg s.c. twice daily,0.3 nM
same,Total plasma cholesterol,"DIO mice; at all doses, result in words",lowered
same,BeHy,DIO mice; 10 nmol/kg s.c. twice daily,428 µmol/L
same,BeHy,DIO mice; 20 nmol/kg s.c. twice daily,750 µmol/L
same,BeHy,DIO mice; 50 nmol/kg s.c. twice daily,1477 µmol/L
same,effect on body weight over the 14 day dosing period,"DIO mice; study A, FIGS. 1-4",dose dependent and continuous weight loss
same,glucose levels at day 14,"DIO mice; study A, result in words",dose-dependent reduction
same,% +1 prod,[2],15%
same,% DPP cleaved product,"[2]; Mouse Plasma at 24 h, 37° C., column % DPP cleaved product/+1 DPP cleaved product, first figure",14%
same,% +1 DPP cleaved product,"[2]; Mouse Plasma at 24 h, 37° C., column % DPP cleaved product/+1 DPP cleaved product, second figure",5%
same,solubility,physchem,≥ 5000 µg/mL
same,Conc. (mg/ml) A280,"[3]; Glutamate pH 4.5, 100 mM",0.83 mg/mL
same,Conc. (mg/ml) A280,"[3]; Phosphate pH 6.5, 100 mM",0.83 mg/mL
same,Conc. (mg/ml) A280,"[3]; Phosphate pH 7.5, 100 mM",0.85 mg/mL
same,Conc. (mg/ml) A280,"[3]; Phosphate, pH = 6, 100 mM",0.14 mg/mL
same,Conc. (mg/ml) A280,"[3]; Tris pH 7.5, 100 mM",0.83 mg/mL
same,Conc. (mg/ml) A280,"[3]; Tris pH 8.0, 100 mM",1.1 mg/mL
same,free peptide at 4.4% HSA,human serum albumin,0.85%
same,Mouse GlucR/GLP1R Ratio,Mouse GlucR,0.04
same,Human GlucR/GLP1R Ratio,Human GlucR,0.122
same,% +1 prod,[4],<1%
same,% DPP cleaved product/+1 DPP cleaved product,[4],<1%
same,Rat GlucR/GLP1R Ratio,Rat GlucR,0.06
